Read-outs that look alike come from different tables or passages of the source.
Tests used:
tubulin = target: T1, tubulin (Sus scrofa, UniProt P02550+P02554); test: Inhibition test of tubulin monomer polymerization (Tubulin polymerization assay kit, fluorescence); assay type: biochemical
T1 construct: purchased cytoskeleton BK011P
Description: Tubulin polymerization assay kit (cytoskeleton, Cat. # BK011P) was used to conduct the compound inhibition test of tubulin monomer polymerization.
Before the test, the 96-well plate (Corning Costar, Cat. # 3686) supplied with the kit was first placed in a microplate reader (MD, SpectraMax M5) and heated to 37°C, maintained for 10 minutes. The 96-well plate was then removed, and 5 µL of 12.5 µM compound solution or blank solution was added thereto. The 96-well plate was then placed back into the microplate reader and incubated at 37°C for 1 minute to heat the compound solution to 37°C. The 96-well plate was removed and 50 µL of reaction mixture prepared according to the supplier's instructions was quickly added to each well, completing the sample addition within 1 minute to avoid the formation of bubbles. The 96-well plate was then immediately placed back into the microplate reader, shaken for 5 seconds, and using the Kinetic mode, continuous detection was carried out at 37°C for 30 to 60 minutes under the conditions of excitation light at 360 nm and emission light at 420 nm, with detection every 30 seconds. Taking the detection time as the X-axis and the fluorescence signal value as the Y-axis, the tubulin monomer polymerization curve was obtained. As shown in FIG. 66 and Table 40, the larger the Vmax value and the higher the maximum fluorescence signal value of the polymerization curve, the lower the inhibitory efficiency of the compound.

[1] = system: Human cutaneous squamous cell carcinoma cell A-431; test: Cell proliferation inhibition test, A-431; assay type: cell-based; settings: A-431, 96 h, 4 days incubation
Description: (§1) Human cutaneous squamous cell carcinoma cell A-431 (ATCC, CRL-1555) and actinic keratosis patient-derived cell HT 297.T (ATCC, CRL-7782) proliferation assays were used to detect the inhibitory effect of small molecular compounds on cell proliferation.
A-431 cells and HT 297.T cells were cultured in DMEM medium containing 10% fetal bovine serum and grown at 37°C in a 5% CO2 incubator. Cells on logarithmic phase were seeded into a 96-well cell culture plate at 1000 cells/well, 100 µL per well, and then cultured overnight at 37°C in a 5% CO2 incubator. The next day, 100 µL of gradient-diluted 2× test compound solution was added to each well, with DMSO serving as a positive control, and 10 µM staurosporine (Aladdin, S102392) was set as a negative control group. After the addition of the compounds, the culture plate was incubated for another 4 days at 37°C in a 5% CO2 incubator. After incubation, the Steady-Glo® luciferase assay system (Promega, G9243) was used according to the supplier's instructions to measure the fluorescence signal value on the Envision 2104 Multilabel Reader. The inhibition rate was calculated by the following formula, then the curve was plotted with the Log value of the inhibitor concentration as the X-axis and the inhibition rate as the Y-axis, and the IC50 was calculated using Graphpad 8.0. [formula] […]

[2] = system: actinic keratosis patient-derived cell HT 297.T; test: Cell proliferation inhibition test, HT 297.T; assay type: cell-based, Human
Description: as §1
A-431 cells and HT 297.T cells were cultured in DMEM medium containing 10% fetal bovine serum and grown at 37°C in a 5% CO2 incubator. Cells on logarithmic phase were seeded into a 96-well cell culture plate at 1000 cells/well, 100 µL per well, and then cultured overnight at 37°C in a 5% CO2 incubator. The next day, 100 µL of gradient-diluted 2× test compound solution was added to each well, with DMSO serving as a positive control, and 10 µM staurosporine (Aladdin, S102392) was set as a negative control group. After the addition of the compounds, the culture plate was incubated for another 4 days at 37°C in a 5% CO2 incubator. After incubation, the Steady-Glo® luciferase assay system (Promega, G9243) was used according to the supplier's instructions to measure the fluorescence signal value on the Envision 2104 Multilabel Reader. The inhibition rate was calculated by the following formula, then the curve was plotted with the Log value of the inhibitor concentration as the X-axis and the inhibition rate as the Y-axis, and the IC50 was calculated using Graphpad 8.0. [formula] Table 41: Inhibition results of test compounds on proliferation activity of A-431 and HT 297.T cells

[3] = Thermodynamic solubility test; assay type: physicochemical; settings: for solubility: thermodynamic from solid, 4 mg/mL, overnight at room temperature
Description: Phosphate buffer saline (PBS) with a pH of 7.4, FeSSIF solution with a pH of 6.5, and FaSSGF solution with a pH of 1.6 were prepared. The compound was accurately weighed and added to prepared phosphate buffer saline with a pH of 7.4, FeSSIF solution with a pH of 6.5, and FaSSGF solution with a pH of 1.6 to prepare into a solution with a concentration of 4 mg/mL. The solution was shaken at a speed of 1000 rpm for 1 hour, and then incubated overnight at room temperature. The incubated solution was centrifuged at 12,000 rpm for 10 minutes to remove undissolved particles, and the supernatant was transferred to a new centrifuge tube. After the supernatant was appropriately diluted, an acetonitrile solution containing internal standard was added, and a standard curve prepared with the same matrix was used for quantification. Table 42: Thermodynamic solubility test results

p-SRC = test: Inhibition of Src signaling pathway (Western Blot of p-SRC in A-431 cells); assay type: cell-based, Human
Description: The Western Blot method was used to detect the compound's inhibition of p-SRC in A-431 skin cancer cells (ATCC, CRL-1555) to evaluate the inhibitory effect of the compound on the SRC signaling pathway.
A-431 cells were cultured in DMEM medium containing 10% fetal bovine serum and grown at 37°C in a 5% CO2 incubator. 500,000 cells/well were seeded in a 12-well cell culture plate and cultured overnight at 37°C in a 5% CO2 incubator. The next day, the culture medium was replaced and different concentrations of the compound were added, with DMSO serving as a control. After the addition of the compounds, the culture plate was cultured for another 24 hours at 37°C in a 5% CO2 incubator. The cells were washed once with PBS, and lysed with RIPA lysis buffer (R0010, Solarbio) at low temperature for 30 minutes. Afterwards, the protein lysate was collected into a centrifuge tube, centrifuged at 14,000 g at 4°C for 10 minutes, and the supernatant was transferred to a new tube. The BCA protein concentration assay kit (P0009, Beyotime Biotechnology) was used to detect and calculate the protein concentration. A 5× protein loading buffer was used to quantify the protein of each sample consistently. The samples were boiled at 100°C for 5 minutes, and subjected to western blot to detect the level of p-SRC. […]

T1 sequence (P02550 whole entry): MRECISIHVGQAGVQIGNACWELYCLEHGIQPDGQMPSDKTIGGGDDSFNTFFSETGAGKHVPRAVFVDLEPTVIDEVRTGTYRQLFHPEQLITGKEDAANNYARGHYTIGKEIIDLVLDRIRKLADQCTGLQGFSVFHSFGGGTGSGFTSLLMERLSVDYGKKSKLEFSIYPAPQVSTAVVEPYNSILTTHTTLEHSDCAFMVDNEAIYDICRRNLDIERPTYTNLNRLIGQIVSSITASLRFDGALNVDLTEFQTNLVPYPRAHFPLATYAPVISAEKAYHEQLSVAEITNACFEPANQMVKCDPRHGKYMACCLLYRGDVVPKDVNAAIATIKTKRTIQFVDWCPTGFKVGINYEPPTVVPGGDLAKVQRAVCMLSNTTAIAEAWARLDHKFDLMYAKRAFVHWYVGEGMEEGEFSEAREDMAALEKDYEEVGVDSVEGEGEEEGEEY
T1 sequence (P02554 whole entry): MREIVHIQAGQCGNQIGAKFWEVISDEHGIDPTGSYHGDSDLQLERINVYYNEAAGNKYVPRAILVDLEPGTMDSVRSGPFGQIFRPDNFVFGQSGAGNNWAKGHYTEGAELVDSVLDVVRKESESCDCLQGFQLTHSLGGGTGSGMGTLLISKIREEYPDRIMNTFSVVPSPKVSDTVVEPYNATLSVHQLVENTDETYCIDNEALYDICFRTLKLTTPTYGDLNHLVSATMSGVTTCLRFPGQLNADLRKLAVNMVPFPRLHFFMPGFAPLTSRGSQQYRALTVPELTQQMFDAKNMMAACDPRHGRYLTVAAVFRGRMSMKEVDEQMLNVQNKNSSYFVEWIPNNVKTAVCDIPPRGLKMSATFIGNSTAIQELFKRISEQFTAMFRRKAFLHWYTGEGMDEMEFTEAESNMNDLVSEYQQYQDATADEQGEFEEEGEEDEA

- Maximum signal value (tubulin; 5 µL of 12.5 µM compound solution, fluorescence ex 360 nm / em 420 nm, 37°C, larger value = lower inhibitory efficiency): 478
- Vmax value and maximum fluorescence signal value of the polymerization curve (tubulin; in words): significantly smaller
- IC50 [1]: 22.6 nM
- solubility ([3]; FeSSIF solution, FeSSIF (pH 6.5), read-out: Solubility (µg/mL) FeSSIF (pH 6.5)): 650 µg/mL
- thermodynamic solubility ([3]; in words, under neutral conditions, compared with the control compound): greater thermodynamic solubility
- solubility ([3]; phosphate buffer saline (PBS), aqueous buffer, PBS (pH 7.4), read-out: Solubility (µg/mL) PBS (pH 7.4)): 101 µg/mL
SMILES: Cc1cc(OCCN2C[C@H]3COC[C@H]3C2)ccc1-c1ccc(CC(=O)NCc2ccccc2)nc1 [Compound of Formula I, N-benzyl-2-(5-(2-methyl-4-(2-((3aR,6aS)-tetrahydro-1H-furo[3,4-c]pyrrol-5(3H)-yl)ethoxy)phenyl)pyridin-2-yl)acetamide]
- IC50 ([2]; Homo sapiens, 96 h, 4 days incubation): 41.3 nM
- inhibitory effect on HT 297.T cells ([2]; in words, versus control compound): significantly better than that of the control compound
- phosphorylation of SRC (p-SRC; 80 nM, A-431 cells, 24 hours): significantly inhibit the phosphorylation of SRC
- p-SRC inhibitory activity (p-SRC; in words, compared with the control compound): better p-SRC inhibitory activity compared with the control compound

— patent publication EP4745130A1, “CRYSTAL FORMS OF TUBULIN-SRC DUAL-TARGETING INHIBITOR, PREPARATION METHOD THEREFOR AND USE THEREOF” (Hubei Bio-Pharmaceutical Industrial Technological Institute …, priority 2023, dated 2025)
